One data set is described as follows: in vitro. The conditions noted are these: human.
In data set [1] the test system is MCF7 (human breast adenocarcinoma cell line). The data set can be described thus: Cytotoxicity, resazurin assay, 72 h. The conditions noted are these: MCF7, 72 h, read-out: Cytotoxicity (IC50) MCF7. (Alamar Blue is a resazurin reagent that responds to reducing activity.)
Experimental: (§1) Initially, the cytotoxic activity of metabolites 3–7, 9–12, 14–20, and 22–26 was evaluated in human cancer and normal cells after 72 h of treatment. Human cervical cancer (HeLa), human breast adenocarcinoma (MCF7) cell lines, and human normal fibroblasts (BJ) were used for the screening.
(§2) The tested compounds were dissolved in DMSO to afford 10 mM stock solutions. Human cervical carcinoma (HeLa) and human breast adenocarcinoma (MCF7) cell lines were purchased from European Collection of Authenticated Cell Cultures (ECACC, Salisbury, UK) and cultivated in Dulbecco’s Modified Eagle Medium (DMEM) (Merck, Darmstadt, Germany), as previously reported [27]. […] All cells were maintained in a humidified CO2 incubator at 37 °C using the standard trypsinization procedure twice or three times a week. […] All cells were maintained in a humidified CO2 incubator at 37 °C using the standard trypsinization procedure twice or three times a week.
(§3) In cytotoxicity assays, cancer cells were treated with six different concentrations of each tested compound for 72 h. Cells were stained with resazurin and IC50 values were calculated as previously reported [26]. Triplicates from at least three independent experiments were used.
Data set [2] deals with HeLa (human cervical cancer cell line). Briefly: Cytotoxicity, resazurin assay, 72 h. The conditions noted are these: read-out: Cytotoxicity (IC50) HeLa.
Experimental: as §1, §2, §3
For data set [3], the system named is BJ (human normal fibroblasts).
Experimental: as §1, §3
A further data set has as its system androgen receptor (AR). Briefly: AR-transcriptional reporter assay (luciferase) in 22Rv1-ARE14 cells. Conditions: 24 h; for Luciferase activity (AR-mediated transcription), in words: six concentrations, already at submicromolar concentrations.
Data set [4] is described as follows: Cytotoxicity, resazurin assay, 72 h. Conditions: human, BJ cells (human normal fibroblasts).
Experimental: as §1, §3
Data set [5] deals with human umbilical vein endothelial cells (HUVEC). The data set can be described thus: Migration scratch assay. In kind it is cell-based. Conditions: 20 µM, 20 h of treatment. As for the experimental part:
Subsequently, we examined whether the isolated steroids could influence angiogenesis or inflammation in vitro. […] Only non-cytotoxic concentrations in HUVECs were used for the scratch assay.
The scratch test was performed with HUVEC cells and evaluated after 20 h of treatment, as previously reported.

The subject of data set [6] is neuron-like SH-SY5Y cells. Briefly: Cell death in 3-NPA model, propidium iodide (PI) assay. In kind it is cell-based, human. The conditions noted are these: maximal effect at 10 µM, with 20 mM 3-NPA, 48 h. As for the experimental part:
In order to evaluate the potential neuroprotective effect of the compounds, neuroblastoma cell line SH-SY5Y was differentiated for 48 h and further exposed to 20 mM 3-nitropropionic acid (3-NPA) as an agent mimicking Huntington’s disease in vitro [25]. 3-NPA was used alone or in co-treatment with the tested compounds at concentrations of 0.1–10 µM. […] In general, PI as a positively charged dye is associated with an increase of cell damage or death, since it penetrates cells with cell-disrupted membranes. Within the 3-NPA model, its toxic effect was considered as 100% of the PI signal and thus reduction of cell death was determined.
N-acetylcysteine (NAC) was used as a positive control. * p compared with vehicle with 20 mM 3-NPA, # p compared with vehicle without 20 mM 3-NPA.
Cell death of SH-SY5Y cells (20,000 cells/well) was determined using the propidium iodide (PI) assay according to Stone et al. with a slight modification. […] The resulting fluorescence of 3-NPA toxin was considered as 100% cell death. In the assays, neuron-like cells were treated with the tested compounds in 0.1–10 µM concentration range for 48 h. DMSO-treated cells (≤0.1% v/v) were used as healthy controls.

The structures appear in SMILES notation. A value given as a limit tells only on which side of the number the result lay.

These results are taken from publication PMC7763444, “Bioactive Steroids from the Red Sea Soft Coral Sinularia polydactyla” (Marine Drugs, 2020).

Experimental for androgen receptor (AR): Therefore, we further analyzed the influence of the isolated steroids on AR-mediated transcription. […] Control cells were grown in charcoal-stripped serum medium (CSS). Cells were stimulated with either 1 nM methyltrienolone R1881 (R) or with the tested compounds in six different concentrations for 24 h in CSS. The luciferase activity was measured in the cell lysate. […] The experiment was repeated three times in triplicates.
AR-transcriptional reporter assays were performed on 22Rv1-ARE14 cells after 24 h of incubation, as previously described [22].
Experimental for in vitro: as §1, §3

The IC50 is the concentration that inhibits the measured activity by half. As for `C=C(CCC(C)C1CCC2C3C(=O)C=C4CC(O)CCC4(CO)C3CCC12C)C(C)C` (stereo not drawn) [Compound 24, 7-oxo-24-methyl-cholesta-5,24(28)-dien-3β,19-diol], the IC50 at 72 h in “in vitro” stood at 45.9 ± 2.8 µM. Also, the IC50 stood at 31.7 ± 0.3 µM in data set [1] and 21.4 ± 2 µM in data set [2].
`C=C(CCC(C)C1CCC2C3CC=C4CC(O)CCC4(CO)C3CCC12C)C(C)C` (stereo not drawn) [Compound 19, 24-methyl-cholesta-5,24(28)-dien-3β,19-diol]: the half-inhibitory concentration (IC50) at 72 h in “in vitro” is > 50 µM. Further, the IC50 in data set [1] and in data set [2] was > 50 µM in each case.
For `C=C(CCC(C)C1CCC2C3(O)CCC4C(C)C(O)CCC4(C)C3CCC12CO)C(C)C` (stereo not drawn) [Compound 15, 4α,24-dimethyl-5α-cholest-24(28)-en-3β,8β,18-triol], in “in vitro”, the 50% inhibitory concentration (IC50) at 72 h is > 50 µM. In data set [3], the “Cytotoxicity toward normal cells (BJ), in words” value (from here on “Cytotoxicity toward normal cells”) was “absence of cytotoxicity”. Moreover, the IC50 is 18.9 ± 0.1 µM in data set [1] and 19 ± 4.3 µM in data set [2].
Molecule `CC(C)[C@@H](C)/C=C/[C@@H](C)[C@H]1CC[C@H]2[C@]3(O)CC[C@H]4[C@H](C)[C@@H](O)CC[C@]4(C)[C@H]3CC[C@]12CO` [Compound 16, (22E,24R)-4α,24-dimethyl-5α-cholest-22-en-3β,8β,18-triol] displayed an IC50 at 72 h in the data set “in vitro” of 23.2 ± 1.4 µM. In addition, in the data set on androgen receptor (AR), the “Concentration dependence of AR inhibition” value is reported as “increased inhibition of AR” and the “Luciferase activity (AR-mediated transcription), in words” value (shortened to “Luciferase activity”) was “clearly reduced luciferase activity in a dose-dependent manner”. Besides, the IC50 in data set [1] is 33.8 ± 1 µM. The IC50 in data set [2] was determined as 32.9 ± 5.2 µM.
As for `C=C(CCC(C)C1CCC2C1(C)CC(O)C1C3(C)CCC(O)C(C)C3CCC21O)C(C)C` (stereo not drawn) [Compound 9, 4α,24-dimethyl-5α-cholest-24(28)-en-3β,8β,11β-triol], the IC50 at 72 h in the data set “in vitro” worked out at 18.3 ± 4 µM. Besides, the IC50 came out at 36.4 ± 5.7 µM in data set [1] and 25.9 ± 4.9 µM in data set [2].
`CC(C)[C@@H](C)/C=C/[C@@H](C)[C@H]1CC[C@@H]2[C@]1(C)C[C@H](O)[C@@H]1[C@@]3(C)CC[C@H](O)[C@@H](C)[C@@H]3CC[C@@]21O` [Compound 10, (22E,24R)-4α,24-dimethyl-5α-cholest-22-en-3β,8β,11β-triol] returned an IC50 at 72 h in “in vitro” of 4.1 ± 1.9 µM. The “Concentration dependence of AR inhibition” value in the data set on androgen receptor (AR) is reported as “increased inhibition of AR”. The IC50 in data set [1] was found to be 32.7 ± 1.3 µM; in data set [2], 32.9 ± 6.8 µM.
In the case of `C=C(CCC(C)C1CCC2C1(C)CCC1C3(C)CCC(O)C(C)C3CCC21O)C(C)C` (stereo not drawn) [Compound 5, 4α,24-dimethyl-5α-cholest-24(28)-en-3β,8β-diol], the IC50 at 72 h in the data set “in vitro” is > 50 µM. Moreover, the IC50 in data set [1] and in data set [2] was > 50 µM throughout.
`CC(C)[C@@H](C)/C=C/[C@@H](C)[C@H]1CC[C@H]2[C@@H]3CC[C@H]4[C@H](C)[C@@H](O)CC[C@]4(C)[C@H]3CC[C@]12C` [Compound 4, (22E,24R)-4α,24-dimethyl-5α-cholest-22-en-3β-ol]: the half-maximal inhibitory concentration (IC50) at 72 h in “in vitro” was > 50 µM. Moreover, the IC50 in data set [1] and in data set [2] was > 50 µM throughout.
As for `C[C@]12CC[C@H](O)CC1=CC[C@@H]1[C@@H]2CC[C@]2(C)C(n3cnc4ccccc43)=CC[C@@H]12` [Galeterone, reference compound], the “Inhibition of AR-regulated transcription” value with androgen receptor (AR) (10 µM, 22Rv1-ARE14) is 22%.
With `C=C(CCC(C)C1CCC2C3C(O)C=C4CC(O)CCC4(C)C3CCC12C)C(C)C` (stereo not drawn) [Compound 18, 24-methyl-cholesta-5,24(28)-dien-3β,7β-diol], the half-maximal inhibitory concentration (IC50) at 72 h in the data set “in vitro” was > 50 µM. In addition, the “Cytotoxicity toward normal cells” value in data set [3] was “absence of cytotoxicity”. The IC50 came out at 28.6 ± 5.3 µM in data set [1] and 22.6 ± 0.4 µM in data set [2].
With `C=C(CCC(C)C1CCC2C3CC=C4CC(O)CCC4(C)C3CCC12C)C(C)C` (stereo not drawn) [Compound 17, 24-methyl-cholesta-5,24(28)-dien-3β-οl], the half-inhibitory concentration (IC50) at 72 h in data set [4] is > 50 µM. In addition, the IC50 in data set [1] and in data set [2] was > 50 µM in each case.
Regarding `C=C(C=CC(C)C1CCC2C3CC=C4CC(O)CCC4(CO)C3CCC12C)C(C)C` (stereo not drawn) [Compound 20, (22E)-24-methyl-cholesta-5,22,24(28)-trien-3β,19-diol], the half-maximal inhibitory concentration (IC50) at 72 h in “in vitro” is > 50 µM. Moreover, in the data set with androgen receptor (AR), the “Concentration dependence of AR inhibition” value is “increased inhibition of AR” and the “Luciferase activity” value is “clearly reduced luciferase activity in a dose-dependent manner”. The IC50 in data set [1] is > 50 µM. Also, in data set [2], the IC50 is > 50 µM.
In the case of `C=C(C(C)C)C(CC(C)C1CCC2C1(C)CC(O)C1C3(C)CCC(O)C(C)C3CCC21O)OC(C)=O` (stereo not drawn) [Compound 12, 23ξ-acetoxy-4α,24-dimethyl-5α-cholest-24(28)-en-3β,8β,11β-triol], in “in vitro”, the 50% inhibitory concentration (IC50) at 72 h was > 50 µM. Moreover, the “Inhibition of HUVEC migration” value in data set [5] is listed as “partially inhibited”. The “Luciferase activity” value in the data set with androgen receptor (AR) was “clearly reduced luciferase activity in a dose-dependent manner”. The “Cytotoxicity toward normal cells” value in data set [3] was “absence of cytotoxicity”. The results for the IC50 in data set [1] and in data set [2] were 25.3 ± 6.5 µM and 15.7 ± 2 µM, respectively.
For `CC(C)[C@@H](C)/C=C/[C@@H](C)[C@H]1CC[C@H]2C3=C[C@@H](O)[C@@]4(O)C[C@@H](O)CC[C@]4(C)[C@H]3CC[C@]12C` [Compound 26, (22E,24R)-24-methyl-cholesta-7,22-dien-3β,5α,6β-triol], the IC50 at 72 h in the data set “in vitro” was > 50 µM. Moreover, the IC50 in data set [1] and in data set [2] was > 50 µM each time.
Regarding `CC(=O)O[C@H]1C=C2C[C@@H](O)CC[C@]2(CO)[C@H]2CC[C@]3(C)[C@@H]([C@H](C)CCCC(C)C)CC[C@H]3[C@H]12` [Compound 23, 7β-acetoxy-cholest-5-en-3β,19-diol], the “Effect on cell death (PI assay), in words” value in data set [6] is reported as “significantly reduced cell death”. Besides, in “in vitro”, it took 14.5 ± 3.9 µM to reach half-maximal inhibition (IC50 at 72 h). Moreover, in data set [5], the “Inhibition of HUVEC migration” value is recorded as “partially inhibited”. Besides, the IC50 in data set [1] was 11.2 ± 0.5 µM; in data set [2], 12 ± 1.7 µM.
Regarding `C=C(CCC(C)C1CCC2C3=CC(O)C4(O)CC(O)CCC4(C)C3CCC21C)C(C)C` (stereo not drawn) [Compound 25, 24-methyl-cholesta-7,24(28)-dien-3β,5α,6β-triol], the half-inhibitory concentration (IC50) at 72 h in “in vitro” was > 50 µM. Besides, the 50% inhibitory concentration (IC50) in data set [1] and in data set [2] was > 50 µM each time.
Consider `CC(C)[C@@H](C)/C=C/[C@@H](C)[C@H]1CC[C@@H]2[C@]1(C)CC[C@@H]1[C@@]3(C)CC[C@H](O)[C@@H](C)[C@@H]3CC[C@@]21O` [Compound 6, (22E,24R)-4α,24-dimethyl-5α-cholest-22-en-3β,8β-diol], for which, in the data set “in vitro”, the half-inhibitory concentration (IC50) at 72 h was > 50 µM. Further, the IC50 in data set [1] and in data set [2] was > 50 µM each time.
In data set [4], `C=C(CCC(C)C1CCC2C3C(OC(C)=O)C=C4CC(O)CCC4(CO)C3CCC12C)C(C)C` (stereo not drawn) [Compound 22, 7β-acetoxy-24-methyl-cholesta-5,24(28)-dien-3β,19-diol] displayed an IC50 at 72 h of 14.8 ± 5.8 µM. In addition, in data set [5], the “Inhibition of HUVEC migration” value is listed as “partially inhibited”. Moreover, the half-inhibitory concentration (IC50) in data set [1] turned out to be 8.9 µM; in data set [2] it was 7.5 ± 0.1 µM.
Turning to `CC(C)C(C)/C=C\[C@@H](C)[C@H]1CC[C@H]2[C@]3(O)CC[C@H]4[C@H](C)[C@@H](O)CC[C@]4(C)[C@H]3[C@@H](O)[C@H](O)[C@]12C` (stereo partly drawn) [Compound 14, (22Z)-4α,24ξ-dimethyl-5α-cholest-22-en-3β,8β,11β,12α-tetraol], in “in vitro”, the IC50 at 72 h is > 50 µM. Also, in data set [3], the “Cytotoxicity toward normal cells” value is “absence of cytotoxicity”. Moreover, the IC50 is 29.1 ± 5 µM in data set [1] and > 50 µM in data set [2].
Regarding `C=C(C(=O)CC(C)C1CCC2C1(C)CCC1C3(C)CCC(O)C(C)C3CCC21O)C(C)C` (stereo not drawn) [Compound 7, 23-oxo-4α,24-dimethyl-5α-cholest-24(28)-en-3β,8β-diol], in “in vitro”, the half-inhibitory concentration (IC50) at 72 h is > 50 µM. The IC50 in data set [1] and in data set [2] was > 50 µM throughout.
As to `C=C(CCC(C)C1CCC2C3CCC4C(C)C(O)CCC4(C)C3CCC12C)C(C)C` (stereo not drawn) [Compound 3, 4α,24-dimethyl-5α-cholest-24(28)-en-3β-οl], the IC50 at 72 h in “in vitro” was > 50 µM. In addition, the IC50 in data set [1] and in data set [2] was > 50 µM each time.
For `C=C(C(=O)CC(C)C1CCC2C1(C)CC(O)C1C3(C)CCC(O)C(C)C3CCC21O)C(C)C` (stereo not drawn) [Compound 11, 23-oxo-4α,24-dimethyl-5α-cholest-24(28)-en-3β,8β,11β-triol], the “Effect on cell death (PI assay), in words” value in data set [6] is listed as “significantly reduced cell death”. Further, in the data set “in vitro”, the IC50 at 72 h is > 50 µM. In addition, the “Inhibition of HUVEC migration” value in data set [5] was “partially inhibited”. For the same molecule, the “Rank of AR inhibition” value with androgen receptor (AR) (10 µM) is given as “strongest inhibition of AR”. The “Luciferase activity” value in the data set on androgen receptor (AR) is on record as “clearly reduced luciferase activity in a dose-dependent manner”. In data set [3], the “Cytotoxicity toward normal cells” value was “absence of cytotoxicity”. In addition, the half-inhibitory concentration (IC50) in data set [1] was found to be 21.7 ± 1.4 µM; in data set [2], 18.8 ± 6.4 µM.
